The source of these data is US8193192B2, “Heterocyclic FXR binding compounds” (Phenex Pharmaceuticals AG, priority 2006, dated 2012).

pEC50: −log10 of the molar value. Values after ≈ are worked out from the molar mass of the structure shown.

Data set [1] can be described thus: Microsomal stability assay. Type of data set: in vitro ADME. Conditions: pH 7.4; mouse liver microsomes, 37° C. The method, then: Microsomal Stability Assay
In vitro assays were performed to evaluate the metabolic stability of test items in liver microsomes originating from mouse. Preparation of working standards of test items: Working solutions were prepared for each calibration level by appropriate dilution of the corresponding stock solution, depending on each compound's solubility in acetonitrile or acetonitrile/water. Calibration standards were prepared by spiking 196 μl standard matrix with 4 μl of the corresponding working solution. The standard matrix consists of 0.15 mg/ml of microsomal protein in phosphate buffer (100 mM pH 7.4), the final standard solutions contain 2% acetonitrile. The samples and standard solutions were extracted with ethyl acetate, isolation of the compounds was performed by addition of 600 μl ethyl acetate containing the internal standard (0.1 μM) to 200 μl sample and calibration standard. After vigorously shaking (10 minutes) and centrifugation (5000 g) the aqueous phase was separated by freezing in an acetone/dry ice bath and the organic phase is evaporated to dryness using a vacuum centrifuge. Samples were reconstituted in 200 μl acetonitrile/water mix (1:1 v/v) and subsequently subjected to LC-MS/MS. The incubation solution (180 μl) consisted of 90 μl of a microsomal suspension of 0.33 mg/ml of protein in phosphate buffer 100 mM pH 7.4 and 90 μl NADP-regenerating system. The reaction was initiated by the addition of 20 μl of test compound (in 20% acetonitrile) to the preincubated microsomes/buffer mix at 37° C. 200 μl samples were removed from the incubation after 0, 5, 10, and 30 minutes and processed for ethyl acetate extraction as described above. Negative controls using boiled microsomes (boiling water bath, 25 minutes) without regenerating system were run in parallel. The amount of compound in the samples is expressed as percentage of remaining compound compared to time point zero (=100%). These percentages were plotted against the corresponding time points. Intrinsic clearance (CLint) and half-life (t1/2) estimates were determined using the rate of parent disappearance and following formula (1) and (2). (1) CLint=(−k)×V×fu. (2) t1/2=ln 2/−k. Where CLint=intrinsic clearance [μl/min/mg protein], t1/2=half life [min], k=slope from the linear regression of log [test compound] versus time plot [1/min]. V=6666.7; fu=unbound fraction in the blood. Applying this protocol gave microsomal stabilities for examples and reference compounds as listed below in Table 6: […]

Data set [2] has as its target T1, human farnesoid X receptor (FXR) alpha ligand binding domain (Homo sapiens, UniProt Q96RI1).
T1 construct: made in house; host or cells: E. coli BL21(DE3), vector pDEST15
T1 sequence (Q96RI1 187-472 isoform Q96RI1-2): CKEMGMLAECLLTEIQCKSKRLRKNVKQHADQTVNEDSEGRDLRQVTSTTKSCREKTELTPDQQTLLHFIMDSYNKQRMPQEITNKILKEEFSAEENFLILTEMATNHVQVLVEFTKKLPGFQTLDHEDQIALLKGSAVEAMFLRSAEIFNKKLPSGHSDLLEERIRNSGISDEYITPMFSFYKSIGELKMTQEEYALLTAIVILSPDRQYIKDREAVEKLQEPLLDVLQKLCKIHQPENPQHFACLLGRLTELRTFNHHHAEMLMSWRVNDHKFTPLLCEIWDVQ
Briefly: FRET activity assay (ligand mediated cofactor peptide interaction, LANCE). It counts as biochemical. Conditions: FXR-LBD/SRC-1 peptide interaction. How it is done: Determination of a ligand mediated cofactor peptide interaction to quantify ligand binding to the nuclear receptor Farnesoid X Receptor (FXR) was performed as follows:
Preparation of human farnesoid X receptor (FXR) alpha ligand binding domain: The human FXRalpha ligand binding domain (LBD) was expressed in E. coli strain BL21(DE3) as an N-terminally glutathione-S-transferase (GST) tagged fusion protein. The DNA encoding the FXR ligand binding domain was cloned into vector pDEST15 (Invitrogen). Expression was under control of an IPTG inducible T7 promoter. The amino acid boundaries of the ligand binding domain were amino acids 187-472 of Database entry NM_005123 (RefSeq). Expression and purification of the FXR-LBD: An overnight preculture of a transformed E. coli strain was diluted 1:20 in LB-Ampicillin medium and grown at 30° C. to an optical density of OD600=0.4-0.6. Gene expression was then induced by addition of 0.5 mM IPTG. Cells were incubated an additional 6 h at 30° C., 180 rpm. Cells were collected by centrifugation (7000×g, 7 min, room temperature). Per liter of original cell culture, cells were resuspended in 10 ml lysis buffer (50 mM Glucose, 50 mM Tris pH 7.9, 1 mM EDTA and 4 mg/ml lysozyme) and left on ice for 30 min. Cells were then subjected to sonication and cell debris removed via centrifugation (22000×g, 30 min, 4° C.). Per 10 ml of supernatant 0.5 ml prewashed Glutathione 4B sepharose slurry (Qiagen) was added and the suspension kept slowly rotating for 1 h at 4° C. Glutathione 4B sepharose beads were pelleted by centrifugation (2000 g, 15 sec, 4° C.) and washed twice in wash buffer (25 mM Tris, 50 mM KCl, 4 mM MgCl2 and 1 M NaCl). The pellet was resuspended in 3 ml elution buffer per liter of original culture (elution buffer: 20 mM Tris, 60 mM KCl, 5 mM MgCl2 and 80 mM glutathione added immediately prior to use as powder). The suspension was left rotating for 15 min at 4° C., the beads pelleted and eluted again with half the volume of elution buffer than the first time. The eluates were pooled and dialysed overnight in 20 mM Hepes buffer (pH 7.5) containing 60 mM KCl, 5 mM MgCl2 as well as 1 mM dithiothreitol and 10% (v/v) glycerol. The protein was analysed by SDS-Page.
The method measures the ability of putative ligands to modulate the interaction between the purified bacterial expressed FXR ligand binding domain (LBD) and a synthetic biotinylated peptide based on residues 676-700 of SRC-1 (LCD2, 676-700). The sequence of the peptide used was B-[…]-COOH where the N-terminus was biotinylated (B). The ligand binding domain (LBD) of FXR was expressed as fusion protein with GST in BL-21 cells using the vector pDEST15. Cells were lysed by sonication, and the fusion proteins purified over glutathione sepharose (Pharmacia) according to the manufacturers instructions. […] For ease of handling and reduction of background from compound fluorescence LANCE technology makes use of generic fluorophore labels and time resolved detection Assays were done in a final volume of 25 μl in a 384 well plate, in a Tris-based buffer (20 mM Tris-HCl pH 7.5; 60 mM KCl, 5 mM MgCl2; 35 ng/μl BSA), containing 20-60 ng/well recombinantly expressed FXR-LBD fused to GST, 200-600 nM N-terminally biotinylated peptide, representing SRC1 aminoacids 676-700, 200 ng/well Streptavidin-xIAPC conjugate (Prozyme) and 6-10 ng/well Eu W1024-antiGST (Perkin Elmer). […]

Data set [3] in a line: Aqueous solubility assay, Protocol B, shake-flask method. It counts as physicochemical. As to conditions: 10 mM PBS buffer with 1% MeOH, kinetic from dmso stock, 10 mM PBS buffer pH 7.4, 1% MeOH, room temperature, read-out: Aqueous solubility pH 7.4 (μM) (±standard deviation), shake-flask method. How it is done:
(§1) Aqueous solubility of compounds was determined by nephelometry or by shake-flask method as follows:
Protocol B, Shake-Flask Method:
Sample preparation: Sample and standard solution preparation is performed by mixing equal volumes of acetonitrile containing the internal standard (1 μM final concentration) with sample and calibration standard solutions (100 μl). After vigorously shaking (10 seconds) the samples are centrifuged (6000 g) for 5 minutes at 20° C. Aliquots of the particle-free supernatants are transferred to 200 μl sample vials and subsequently subjected to LC-MS/MS analysis. Assay procedure: Test concentration was 100 μM in 10 mM PBS buffer pH 7.4 with a final MeOH concentration of 1%. The volume of the incubation solution was 500 μl. Depending on each compound's solubility in MeOH, the stock concentration and the incubation concentration was adapted. The test solutions in quadruplicates were shaken at 300 rpm over a 20 hours period at room temperature, followed by centrifugation at 20000 g for 30 minutes to separate the solid phase. 100 μl of particle free sample are added to 100 μl acetonitrile containing the internal standard. The aqueous solubility of the compounds was determined by measuring the concentration of the PBS buffer supernatant by HPLC-MS/MS. Aqueous solubilities of examples and reference compounds are listed below in Table 3.

The next data set is described as follows: PAMPA permeability assay. It counts as in vitro ADME. Conditions: % of compound found in the receiver compartment after 16 hours; PBS pH 7.4, 5% DMSO, 23° C. How it is done:
Artificial membrane permeability was determined as follows: Tested compounds were dissolved to 10 mM in 100% DMSO. Permeability of compounds was measured in PBS (pH 7.4), 5% DMSO at 23° C. Safire (Tecan) plate reader was used for measurement the UV/Vis absorption. Protocol: Dilute stocks of tested compounds and controls with PBS to 1.67 mM and mix well by pipetting, add 280 μl of PBS, 5% DMSO to acceptor plate, add 5 μl of 2% L-α-Phosphatidylcholine suspension in dodecane to the membrane of donor plate. Immediately add 98 μl of PBS to donor plate and make the sandwich with acceptor plate. Add 42 μl of tested compounds and controls dilutions to […], cover the plate, place into camera and incubate for 16 hours. Make the equilibrium plate, add 225 μl of PBS, 3.7% DMSO and 25 μl of tested compounds and controls dilutions to UV plate. After 16 hours pull the donor plate out and transfer 250 μl from acceptor plate to UV plate. Scan UV plate on Safire (Tecan) plate reader from […]. Permeability is reported in % of compound found in the receiver compartment after the incubation period. Applying this protocol, PAMPA permeabilities of examples and reference compounds were determined as follows (see Table 4): […]

Data set [4] is described as follows: Aqueous solubility assay, Protocol A, nephelometry method. Type of data set: physicochemical. Conditions: PBS with 5% DMSO, aqueous with cosolvent or surfactant or cyclodextrin, kinetic from dmso stock, PBS pH 7.4, 5% DMSO, 23° C. How it is done:
as §1
Protocol A, Nephelometry Method:
Solubility of compounds was measured in PBS (pH 7.4), 5% DMSO at 23° C. Nepheloskan Ascent (Thermo Electron Corporation) nephelometer was used for measurement of light scattering. Tested compounds were dissolved in DMSO to 10 mM. Prior to measurement the compounds were further diluted with PBS in the wells to final compound concentrations of 100, 70, 50, 35, 25, 17, 12 and <10 μg/ml.
The plates were incubated at room temperature for 24 hours to reach equilibrium and the scattered light was measured. Assay validation: Aqueous solubility of acetylsalicylic acid was determined to validate the assay. […] Aqueous solubilities of examples and reference compounds are listed below in Table 2.

The conditions of data set [5]: The Merck index, 10th edition; cited from earlier work.

With `CC(C)c1onc(-c2c(Cl)cccc2Cl)c1COc1ccc(Oc2ccc(C(=O)NS(C)(=O)=O)cc2)cn1` [Example 4, 4-(6-((3-(2,6-Dichlorophenyl)-5-isopropylisoxazol-4-yl)methoxy)pyridin-3-yloxy)-N-(methylsulfonyl)benzamide], the melting point was 182 to 184 °C. In data set [1], this compound yielded a half-life of 30 min and an intrinsic clearance (microsomal CLint) of 153 µL/min/mg. Further, in data set [2], the pEC50 is at least 6.00. In data set [3], the solubility at 20 h stood at 114 µM (≈ 65.7 µg/mL).
Turning to `CC(C)c1onc(-c2c(Cl)cccc2Cl)c1COc1ccc(Oc2ccc(C(=O)O)cc2)cn1` [Example 1, 4-(6-((3-(2,6-Dichlorophenyl)-5-isopropylisoxazol-4-yl)methoxy)pyridin-3-yloxy)benzoic acid], the “PAMPA Permeability” value in the data set “PAMPA permeability assay” turned out to be 54%. For the same compound, the solubility at 24 h in data set [4] is over 200 µM. The pEC50 in data set [2] is at least 6.00.
Regarding `CC(C)c1onc(-c2c(Cl)cccc2Cl)c1COc1ccc(/C=C/c2cccc(C(=O)O)c2)c(Cl)c1` [Compound B, reference compound], the “PAMPA Permeability” value in the data set “PAMPA permeability assay” was determined as 7%.
`CC(C)c1onc(-c2c(Cl)cccc2Cl)c1COc1ccc(Oc2cccc(C(=O)O)c2)cn1` [Example 2, 3-(6-((3-(2,6-Dichlorophenyl)-5-isopropylisoxazol-4-yl)methoxy)pyridin-3-yloxy)benzoic acid]: the “PAMPA Permeability” value in “PAMPA permeability assay” is recorded as 43%. The pEC50 in data set [2] was at least 6.00.
For `CC(C)c1onc(-c2c(Cl)cccc2Cl)c1COc1ccc(Oc2ccc(C(=O)O)cc2)nn1` [Example 5, 4-(6-((3-(2,6-Dichlorophenyl)-5-isopropylisoxazol-4-yl)methoxy)pyridazin-3-yloxy)benzoic acid], the negative-log EC50 (pEC50) in data set [2] was at least 6.00.
Take `CC(=O)Oc1ccccc1C(=O)O` [acetylsalicylic acid]: the “Aqueous solubility, reported literature value” in data set [5] is given as “at least 2.17 mg/ml”.
